Source: publication PMC12456999, “Sulfonyl Homoserine Lactones Are Tunable Probes to Inhibit the Quorum Sensing Receptor RhlR and Reduce Swarming Motility in Pseudomonas aeruginosa” (ACS Infectious Diseases, 2025)
pIC50: −log10 of the molar value. Read-outs that look alike come from different tables or passages of the source.

Key:
P. aeruginosa PAO1 = test: Swarming motility assay; assay type: cell-based, Pseudomonas aeruginosa; conditions: PAO1 + DMSO = 100%, PAO1 ΔrhlR + vehicle = 0%; for reduction in swarming activity relative to the controls: compound at 500 μM
Description: We next evaluated the ability of the four sulfonyl HLs 39, 43, 59, and 75 capable of inhibiting RhlR in the P. aeruginosa reporter to reduce swarming motility in a wild-type P. aeruginosa strain (PAO1). Swarming is a rapid, group-coordinated movement of a bacterial population across a semisolid surface, linked to increased expression of virulence factors and increased antibiotic resistance and regulated in P. aeruginosa, at least in part, by the Rhl system. The results of these phenotypic assays are shown in Figure (see Methods for protocol). The swarming ability of PAO1 in the presence of vehicle (DMSO) served as a positive control (set to 100%). As a key negative control, we examined the swarming ability of a PAO1 ΔrhlR mutant in the presence of the vehicle and observed […] relative to the positive control (set to 0%).
5 Swarming motility assay data in P. aeruginosa. […] Area of the colony after 42 h incubation was used to calculate swarming activity (see Methods). Positive control = PAO1 treated with vehicle (DMSO, 100%). Negative control = PAO1 ΔrhlR treated with vehicle (0%). Error bars = standard deviation of the means of triplicate samples. (B) Representative images of P. aeruginosa swarming on agar plates used to generate data in panel A.
The motility assay was based in part on a previously reported procedure. P. aeruginosa PAO1 was grown overnight with 500 or 250 μM compound, or vehicle (DMSO), at 37 °C and normalized to OD600 = 0.4. Cells were washed with sterile water twice and resuspended with 500 (39, 43, and 59) or 250 (75) μM fresh compound or vehicle (DMSO), in M8 minimal medium. Cells (5 μL) were spotted in the center of agar plates (100 mm diameter) generated from M8 minimal medium + 1 mM MgSO4 + 0.2% glucose + 0.5% Casamino acids + 0.5% agar. Plates were covered and the cells were grown for 24–48 h at 37 °C prior to imaging (using an iPhone 14 camera). Photographs were analyzed using ImageJ to calculate the area of the swarm and normalized to the area of (P. aeruginosa PAO1 + vehicle) – (P. aeruginosa PDO111 (ΔrhlR) + vehicle).

RhlR = target: T1, RhlR (Pseudomonas aeruginosa, UniProt P54292); test: E. coli (JLD271) RhlR reporter antagonism assay, in competition with BHL; assay type: cell-based; conditions: for max. RhlR inhibition (%): BHL at 10 μM set to 0%, media control set to 100%
T1 construct: expressed in transfected cells; host or cells: E. coli JLD271 (K-12 ΔlacX74 sdiA271::Cam) carrying pJN105-R2 (RhlR expression) and pSC11-rhlI (rhlI'-lacZ reporter)
T1 sequence (P54292 whole entry): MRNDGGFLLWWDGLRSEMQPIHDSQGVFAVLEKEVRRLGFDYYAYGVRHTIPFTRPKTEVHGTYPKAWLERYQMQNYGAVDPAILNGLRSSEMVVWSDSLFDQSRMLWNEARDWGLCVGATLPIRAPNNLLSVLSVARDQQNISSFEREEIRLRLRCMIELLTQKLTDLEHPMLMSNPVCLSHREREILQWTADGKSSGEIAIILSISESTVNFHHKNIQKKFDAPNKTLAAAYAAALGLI
Method: To start, the sulfonyl HLs were evaluated for their ability to antagonize RhlR using a previously described E. coli strain (JLD271) harboring a RhlR expression plasmid and a rhlI reporter plasmid. This E. coli reporter produces RhlR, and protein activity in the presence of an added small molecule can be measured via the production of β-galactosidase as quantified via luminescence (see Methods). Compounds were screened in competition against RhlR’s native ligand, BHL (at its EC50 value in this strain, 10 μM), over a range of concentrations to generate antagonism dose–response curves (see Supporting Information) and calculate IC50 values (listed in Table ). A small set of compounds was also screened for RhlR agonism in the E. coli reporter; the agonism assay format was identical to the antagonism assay, except no BHL was added.
RhlR activity in E. coli strain JLD271 (ΔsdiA) was measured via a β-galactosidase reporter (rhI-lacZ) using the Promega Beta-Glo Assay System as previously described. RhlR activity in P. aeruginosa PA14 (ΔrhlIΔlasI) was measured via a GFP reporter (rhlA-gfp). […] See Supporting Information for both reporter protocols.
Supporting Information — Aguirre-Figueroa et al.
E. coli and P. aeruginosa RhlR reporter assay protocols.
E. coli RhlR reporter assay. RhlR activity in E. coli strain JLD271 (ΔsdiA) was measured via a β-galactosidase reporter using the Promega Beta-Glo® Assay System as previously described.10 A schematic of the reporter plasmids and assay protocol is shown in Scheme S1. Briefly, a single colony of E. coli JLD271 harboring the RhlR expression plasmid pJN105-R and the rhlI-lacZ transcriptional fusion reporter pSC11-R (Table S1) was grown in LB medium with 100 μg/mL ampicillin and 10 μg/mL gentamicin overnight (~16 h). The culture was diluted 1:10 in fresh LB medium and grown to an OD600 = 0.25 (0.23–0.28) (~0.5 h). Arabinose was added to a final concentration of 4 mg/mL to induce the expression of pJN105-R. Aliquots (2 μL) of compound DMSO stock solution or serial dilution were added to the inner wells (i.e., non-periphery rows) of a 96-well microtiter plate. To six inner wells, DMSO alone (vehicle) was added as a negative control. For agonism assays, BHL was added to six inner wells as a positive control (to achieve 1 mM). For antagonism assays, BHL was added to six inner wells as a positive control and to all of the other sample wells except for the vehicle control wells (to achieve 10 μM ). Subculture (198 μL) was then dispensed into each inner well. To the outer (periphery) wells, 200 μL of water were added to maintain humidity during incubation. Plates were then incubated for 4 h (shaking) at 37 °C.
Scheme S1. Schematic of E. coli reporter plasmids and assay. (A) Representation of plasmids used in the heterologous reporter system. (B) General reporter assay workflow. BioRender used in […]
After the incubation period, the OD600 of each well was measured using a plate reader. Cell dilution plates were prepared by transferring 10 μL from the incubated culture plate wells to a fresh 96-well plate and adding 90 μL of 18 MΩ water to each well. Next, 10 μL aliquots of diluted Beta-Glo® reagent (1:2 with 18 MΩ water) were added to each well of a white 384-well microtiter plate, followed by 10 μL of culture from each well of the dilution plate. The 384-well plate was incubated (without shaking; i.e., static) for 30 min at 30 °C. After incubation, luminescence of each well was measured using a plate reader. To determine levels of RhlR activity, raw luminescence was divided by OD600 to correct for growth variation and then normalized to the negative (0%) and positive (100%) control wells.
Dose-response reporter assay data for compounds in the E. coli RhlR reporter.
Dose-response curves for RhlR antagonism by compounds against 10 μM BHL using the E. coli JLD271 RhlR reporter are provided below. Compound names are indicated on the x-axis of each plot.
All assays performed in triplicate as at least three separate biological replicates. […]

[1] = IC50, E. coli JLD271 RhlR reporter, against 10 μM BHL

Question: What does the source list for O=C1OCC[C@@H]1NS(=O)(=O)c1ccc(F)c(F)c1 [Compound 59, 3,4-di-F BSHL]?
Answer: reduction in swarming activity relative to the controls (P. aeruginosa PAO1): 60%; max. RhlR inhibition (%) (RhlR; E. coli RhlR reporter): 87%; pIC50 (RhlR; [1]): 4.06

Question: How did the reduction in swarming (P. aeruginosa PAO1; compound at 250 μM) turn out when CCCCCS(=O)(=O)N[C@H]1CCOC1=O [Compound 75, C5 ASHL] was run?
Answer: 30%

Question: And the pIC50 (RhlR; E. coli JLD271 RhlR reporter, against 10 μM BHL)?
Answer: 4.69

Question: And the “max. RhlR inhibition (%)” value (RhlR; E. coli RhlR reporter)?
Answer: 84%

Question: And the pIC50 (RhlR; read-out: inhibitory potency on average (74, 75 and 18), average over the C4, C5 and C6 ASHLs, E. coli RhlR reporter)?
Answer: ~4.55

Question: For O=C1OCC[C@@H]1NS(=O)(=O)c1ccc(Cl)c(Cl)c1 [Compound 43, 3,4-di-Cl BSHL], which “reduction in swarming activity relative to the controls” value (P. aeruginosa PAO1) is on record?
Answer: 60%

Question: And the potency gain (RhlR; 33 vs 16, 43 vs 24, 86 vs 45, E. coli RhlR reporter IC50)?
Answer: ≤ 40 fold

Question: What about the “fold lower IC50 value than 3-Cl BSHL (28)” value (RhlR; E. coli RhlR reporter IC50) of the same compound?
Answer: over 2 fold

Question: What about the “max. RhlR inhibition (%)” value (RhlR; E. coli RhlR reporter) of the same compound?
Answer: 99%

Question: What about the pIC50 (RhlR; [1]) of the same compound?
Answer: 4.27

Question: With O=C1OCC[C@@H]1NS(=O)(=O)c1cccc(Br)c1 [Compound 39, 3-bromo BSHL] as the compound, how does the “reduction in swarming activity relative to the controls” value (P. aeruginosa PAO1) read?
Answer: 60%

Question: What about the “fold more potent than 4-bromo BSHL (35)” value (RhlR; E. coli RhlR reporter IC50) of the same compound?
Answer: ~6 fold

Question: What about the “max. RhlR inhibition (%)” value (RhlR; E. coli RhlR reporter) of the same compound?
Answer: 90%

Question: What about the pIC50 (RhlR; [1]) of the same compound?
Answer: 4.52
